Test [1] in a line: (§1) Tested in vitro for the antiviral activity in PBM cells infected with HIV-1. Format: functional. The note with it: Homo sapiens, PBMC.
Test [2] has as its system MT4. Kind of test: (§2) Tested in vitro for the antiviral activity in MT-4 cells infected with HIV-1. The note with it: Homo sapiens. The class given is functional.
The test system of test [3] is CEM-TK(-). Kind of test: (§3) Tested in vitro for the antiviral activity in CEM/TK- cells infected with HIV-1. The class given is functional. The note with it: Homo sapiens.
In test [4] the test system is CEM-SS. Briefly: (§4) Tested in vitro for the antiviral activity in CEM-SS cells infected with HIV-1. The class given is functional. The note with it: Homo sapiens.
The test system of test [5] is MT4. Described as §2. The class given is functional, Homo sapiens.
Test [6] concerns CEM-TK(-). The test is described as §3. The note with it: Homo sapiens. The class given is functional, cell-based.
A short description of test [7]: as §1. The class given is functional, cell-based. The note with it: Homo sapiens, PBMC.
In test [8] the test system is CEM-SS. Described as §4. The note with it: Homo sapiens. The class given is functional, cell-based.
Test [9] concerns MT4. Described as §2. Format: functional, cell-based. The note with it: Homo sapiens.
The subject of test [10] is CEM-SS. The description is as §4. The class given is functional, Homo sapiens.
In test [11] the test system is CEM-TK(-). The description is as §3. The class given is functional, Homo sapiens.

For orientation: CC50 means the concentration that lowers cell viability or growth by half. The low end stands for harm at low concentration, the high end for better tolerance by the cells. As usually defined, the EC50 is the concentration that produces a half-maximal response. Lower therefore signals greater potency. For the compound `CC(=O)SCCOP(=O)(OCCSC(C)=O)OCC1C=CC(n2cc(C)c(=O)[nH]c2=O)O1` (stereo not given), the CC50 was 22 µM in test [1], more than 100 µM in the test on MT4 [2], 60 µM in the test on CEM-TK(-) [3] and 68 µM in the test with CEM-SS [4]. This compound gave a Reduction in the test on MT4 [5] of 19%. The EC50 turned out to be 0.012 µM in the test with CEM-TK(-) [6], 0.007 µM in [7], 0.006 µM in the test on CEM-SS [8] and 0.016 µM with MT4 [9].
Regarding `Cc1cn([C@H]2C=C[C@@H](CO)O2)c(=O)[nH]c1=O` [STAVUDINE], the values for the Reduction with CEM-SS [10], with MT4 [5] and in the test on CEM-TK(-) [11] were 21%, 10% and 6%, respectively. In addition, the CC50 in test [1] is 42 µM; in the test on MT4 [2], more than 100 µM; with CEM-TK(-) [3] it was more than 100 µM; with CEM-SS [4] it was more than 100 µM. In addition, the EC50 with CEM-TK(-) [6] stood at 10 µM; in test [7], 0.05 µM; with CEM-SS [8], 0.059 µM; in the test on MT4 [9] it was 0.28 µM.
